This is an account of results in ChEMBL document CHEMBL1201862, “PubChem BioAssay data set” (2004).

Test systems include SK-MEL-5; Malme-3M; A549; HCT-15; OVCAR-8; NCI/ADR-RES; HOP-92; OVCAR-4; SK-MEL-28; RXF 393; HCC 2998; OVCAR-3; MDA-N; SNB-19; MDA-MB-435; SF-295; M14; SN12C; SF-539; MOLT-4.
What all share (assay): inhibition of tumour cell growth, NCI panel, 48 h

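These data come from cells grown in 96-well plates and exposed to compound for 48 hours at five concentrations. GI50: concentration for 50% inhibition of growth.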 Active and inactive are the calls of the source. Rule as the data show it: active = GI50 up to about 1.1 µM and inactive = higher. Where only a bound is given, the exact number is not on record here.

`C=C(C)[C@@H]1CC[C@]2(C(=O)O)CC[C@]3(C)[C@H](CC[C@@H]4[C@@]5(C)CC(=O)C(C)(C)[C@@H]5CC[C@]43C)[C@@H]12`: the GI50 with SK-MEL-5 is 5.7 µM (inactive); with Malme-3M, 8.05 µM (inactive); in the assay on A549, 5.56 µM (inactive); with HCT-15 it was 8.67 µM; with OVCAR-8, 11.2 µM (inactive); with NCI/ADR-RES it was 11.1 µM (inactive). The GI50 is 11.1 µM (inactive) with HOP-92; 15 µM (inactive) in the assay on OVCAR-4; 8.11 µM (inactive) in the assay with SK-MEL-28; 7.87 µM (inactive) with RXF 393; 5.9 µM (inactive) in the assay with HCC 2998; 6.38 µM (inactive) with OVCAR-3. For the same compound, the GI50 in the assay on MDA-N was 8.13 µM (inactive); with SNB-19, 11.7 µM (inactive); in the assay with MDA-MB-435 it was 8.02 µM (inactive); in the assay on SF-295, 6.47 µM (inactive); with M14, 8.65 µM (inactive); in the assay on SN12C it was 4.46 µM (inactive). Also, the GI50 with SF-539 is 6.08 µM (inactive); in the assay on MOLT-4 it was 4.98 µM (inactive).
Consider `CN(C)c1c(Cl)c(=O)oc2c1ccc1nc(-c3ccccc3)sc12`, for which the GI50 is > 100 µM (inactive) in the assay on SK-MEL-5; 31.5 µM (inactive) in the assay on Malme-3M; > 100 µM (inactive) in the assay on A549; greater than 100 µM with HCT-15; > 100 µM (inactive) in the assay on OVCAR-8; > 100 µM (inactive) in the assay on NCI/ADR-RES. In addition, the GI50 in the assay on HOP-92 was > 100 µM (inactive); with OVCAR-4, > 100 µM (inactive); in the assay with SK-MEL-28, > 100 µM (inactive); in the assay on RXF 393 it was 55.3 µM (inactive); in the assay with HCC 2998, > 100 µM (inactive); with OVCAR-3, > 100 µM (inactive). The GI50 in the assay on MDA-N, with SNB-19, with MDA-MB-435, in the assay on SF-295, with M14 and in the assay with SN12C was > 100 µM (inactive) throughout. Besides, the GI50 with SF-539 and in the assay on MOLT-4 was > 100 µM (inactive) throughout.
For the compound `O=C(O)c1cccc(OCCOc2cccc(C(=O)O)c2[N+](=O)[O-])c1[N+](=O)[O-]`, the GI50 was > 100 µM (inactive) in the assay with SK-MEL-5; > 100 µM (inactive) in the assay on Malme-3M; > 100 µM (inactive) in the assay on A549; greater than 100 µM in the assay on HCT-15; > 100 µM (inactive) in the assay with OVCAR-8; > 100 µM (inactive) in the assay with NCI/ADR-RES. Besides, the GI50 in the assay with HOP-92, in the assay on OVCAR-4, in the assay on SK-MEL-28, with RXF 393, in the assay on HCC 2998 and in the assay on OVCAR-3 was > 100 µM (inactive) throughout. The GI50 in the assay on MDA-N, in the assay with SNB-19, in the assay with MDA-MB-435, in the assay with SF-295, in the assay on M14 and with SN12C was > 100 µM (inactive) throughout. Besides, the GI50 with SF-539 and with MOLT-4 was > 100 µM (inactive) in each case.
As for `O=C(/C=C/c1ccc([N+](=O)[O-])cc1)N1CCN(CCOC(c2ccc(F)cc2)c2ccc(F)cc2)CC1`, the GI50 is 13.9 µM (inactive) in the assay on SK-MEL-5; > 100 µM (inactive) with Malme-3M; 12 µM (inactive) in the assay with A549; 19.1 µM in the assay on HCT-15; 8.87 µM (inactive) in the assay on OVCAR-8; 4.72 µM (inactive) in the assay with NCI/ADR-RES. Besides, the GI50 with HOP-92 is 6.58 µM (inactive); in the assay with OVCAR-4, 8.75 µM (inactive); in the assay with SK-MEL-28, > 100 µM (inactive); in the assay with RXF 393 it was 9.44 µM (inactive); in the assay with HCC 2998, 29.2 µM (inactive); in the assay with OVCAR-3, > 100 µM (inactive). Besides, the GI50 is 27.1 µM (inactive) in the assay with MDA-N; > 100 µM (inactive) with SNB-19; 9.84 µM (inactive) in the assay with MDA-MB-435; 69.5 µM (inactive) with SF-295; 6.35 µM (inactive) in the assay with M14; 4.04 µM (inactive) with SN12C. The results for the GI50 in the assay with SF-539 and in the assay on MOLT-4 were 45.9 µM (inactive) and 3.6 µM (inactive), respectively.
As for `C=C1CC/C=C(\C)CCC[C@H](C)[C@@H](O)[C@@H]2OC(=O)C(=C)[C@@H]2C[C@H]1O`, the GI50 is 5.05 µM (inactive) in the assay with SK-MEL-5; 5.96 µM (inactive) in the assay with Malme-3M; 17.1 µM (inactive) with A549; 3.42 µM in the assay with HCT-15; 4.71 µM (inactive) in the assay with OVCAR-8; 8.3 µM (inactive) in the assay with NCI/ADR-RES. Further, the GI50 in the assay with HOP-92 was 1.18 µM (inactive); in the assay on OVCAR-4 it was 19.1 µM (inactive); in the assay on SK-MEL-28, 2.99 µM (inactive); in the assay on RXF 393 it was 4.25 µM (inactive); with HCC 2998, 18.4 µM (inactive); with OVCAR-3 it was 9.12 µM (inactive). Also, the GI50 in the assay on MDA-N was 8.47 µM (inactive); with SNB-19, 14.8 µM (inactive); with MDA-MB-435, 3.62 µM (inactive); in the assay with SF-295, 17.2 µM (inactive); in the assay with M14 it was 4.75 µM (inactive); in the assay with SN12C it was 5.93 µM (inactive). For the same compound, the GI50 was 2.27 µM (inactive) in the assay with SF-539 and 2.13 µM (inactive) with MOLT-4.
`COc1cc2oc(-c3ccc(O)cc3O)c(CC=C(C)C)c(=O)c2c(O)c1/C=C/C(C)C` [ARTOCARPIN]: the GI50 in the assay with SK-MEL-5 is 1.69 µM (inactive); in the assay on Malme-3M it was 6.4 µM (inactive); with A549, 2.75 µM (inactive); with HCT-15, 2.96 µM; in the assay with OVCAR-8 it was 1.75 µM (inactive); with NCI/ADR-RES, 2.64 µM (inactive). In addition, the GI50 in the assay on HOP-92 is 3.08 µM (inactive); with OVCAR-4, 2.61 µM (inactive); in the assay on SK-MEL-28, 5.85 µM (inactive); with RXF 393 it was 2.12 µM (inactive); in the assay with HCC 2998 it was 2.46 µM (inactive); in the assay on OVCAR-3, 2.08 µM (inactive). In addition, the GI50 with MDA-N is 2.79 µM (inactive); with SNB-19 it was 2.72 µM (inactive); with MDA-MB-435 it was 1.99 µM (inactive); in the assay with SF-295, 3.48 µM (inactive); with M14, 1.77 µM (inactive); with SN12C, 1.81 µM (inactive). Further, the GI50 in the assay with SF-539 is 4.91 µM (inactive); in the assay with MOLT-4, 2.33 µM (inactive).
Consider `O=CC(I)=C(c1ccccc1)c1ccccc1`, for which the GI50 was 17.3 µM (inactive) in the assay on SK-MEL-5; 16.2 µM (inactive) in the assay with Malme-3M; 19.5 µM (inactive) with A549; 14.1 µM in the assay on HCT-15; 21.7 µM (inactive) with OVCAR-8; 20 µM (inactive) with NCI/ADR-RES. The GI50 was 18.9 µM (inactive) in the assay on HOP-92; 13.4 µM (inactive) in the assay on OVCAR-4; 17.2 µM (inactive) with SK-MEL-28; 15.1 µM (inactive) in the assay with RXF 393; 19.7 µM (inactive) in the assay with HCC 2998; 13.2 µM (inactive) in the assay with OVCAR-3. Besides, the GI50 in the assay with MDA-N was 17 µM (inactive); with SNB-19, 15.7 µM (inactive); in the assay on MDA-MB-435, 17 µM (inactive); with SF-295, 17.3 µM (inactive); in the assay on M14, 18.5 µM (inactive); with SN12C, 20.7 µM (inactive). Moreover, the values for the GI50 with SF-539 and in the assay on MOLT-4 were 23.2 µM (inactive) and 11.3 µM (inactive), respectively.
Take `Cc1c2cc[n+](C)cc2c(C)c2c1sc1ccccc12`: the GI50 in the assay with SK-MEL-5 is 1.39 µM (inactive); with Malme-3M, 0.542 µM (active); in the assay with A549, 0.159 µM (active); with HCT-15, 18.3 µM; in the assay on OVCAR-8 it was 0.33 µM (active); in the assay on NCI/ADR-RES, 18.9 µM (inactive). Moreover, the GI50 with HOP-92 is 1.3 µM (inactive); with OVCAR-4 it was 3.4 µM (inactive); with SK-MEL-28, 2.45 µM (inactive); in the assay with RXF 393 it was 1.56 µM (inactive); in the assay with HCC 2998, 1.44 µM (inactive); with OVCAR-3, 1.29 µM (inactive). Further, the GI50 is 2.77 µM (inactive) in the assay with MDA-N; 0.205 µM (active) with SNB-19; 2.05 µM (inactive) in the assay on MDA-MB-435; 0.143 µM (active) in the assay with SF-295; 4.73 µM (inactive) with M14; 0.132 µM (active) in the assay with SN12C. In addition, the GI50 with SF-539 is 0.332 µM (active); in the assay with MOLT-4, 0.131 µM (active).
`Nc1ncnn2c(C3OC(CO)C(O)C3O)ccc12` (stereo not given): the GI50 in the assay on SK-MEL-5 is 0.226 µM (active); in the assay on Malme-3M, 0.0698 µM (active); in the assay with A549, 0.155 µM (active); in the assay with HCT-15, 0.138 µM; in the assay on OVCAR-8 it was 0.0991 µM (active); in the assay with NCI/ADR-RES, 0.237 µM (active). For the same compound, the GI50 is 0.0173 µM (active) with HOP-92; 0.0906 µM (active) in the assay with OVCAR-4; 0.164 µM (active) in the assay on SK-MEL-28; 0.226 µM (active) in the assay with RXF 393; 0.426 µM (active) with HCC 2998; 0.169 µM (active) in the assay on OVCAR-3. Also, the GI50 with MDA-N is 0.163 µM (active); in the assay with SNB-19, 0.421 µM (active); in the assay on MDA-MB-435, 0.137 µM (active); with SF-295 it was 0.323 µM (active); in the assay with M14, 0.0832 µM (active); with SN12C, 0.195 µM (active). The GI50 was 0.106 µM (active) with SF-539 and 0.153 µM (active) in the assay on MOLT-4.
Turning to `CCOC1C=CC(=O)C(CO)O1` (stereo not given), the GI50 in the assay with SK-MEL-5 is 21.1 µM (inactive); in the assay on Malme-3M, 12.2 µM (inactive); in the assay on A549 it was 17.6 µM (inactive); in the assay on HCT-15, 10 µM; with OVCAR-8, 11.6 µM (inactive); in the assay on NCI/ADR-RES it was 14.9 µM (inactive). For the same compound, the GI50 with HOP-92 is 2.57 µM (inactive); with OVCAR-4 it was 8.97 µM (inactive); with SK-MEL-28 it was 16.9 µM (inactive); in the assay on RXF 393 it was 7.55 µM (inactive); in the assay on HCC 2998, 17.4 µM (inactive); with OVCAR-3, 6.73 µM (inactive). Moreover, the GI50 with MDA-N is 15.3 µM (inactive); with SNB-19, 19.7 µM (inactive); in the assay with MDA-MB-435, 12.2 µM (inactive); with SF-295, 17.9 µM (inactive); in the assay on M14, 15 µM (inactive); in the assay on SN12C it was 13.3 µM (inactive). Also, the GI50 in the assay with SF-539 was 9.02 µM (inactive); in the assay with MOLT-4, 6.65 µM (inactive).
